In patent US11161846B2, “Substituted pyrazolo[4,3-b]pyridines and their use as GluN2B receptor modulators” (JANSSEN PHARMACEUTICA NV, priority 2019, dated 2021) one finds IC50 data, which are given here for 34 compounds.

Each structure is given as a SMILES string.

The test deals with T1, human GluN1/GluN2B NMDA receptors (Homo sapiens, UniProt Q05586+Q13224).
T1 construct: expressed in transfected cells
Description: Calcium flux (FLIPR) assay on cloned human NR1/GluN2B ion channels expressed in mammalian cells, standard assay. It is filed as cell-based. Conditions: glutamate ~EC40 and 10 μM glycine, stable cell line with Tet-On induced expression. On the procedure: Effects of Test Articles on Cloned Human NR1/GluN2B Ion Channels Expressed in Mammalian Cells
NMDA receptors are ion channels that are highly permeable to Ca^2+ ions, rendering it possible to monitor NMDA receptor function using cell-based calcium flux assay. In this assay, co-agonists glutamate and glycine are added to cells heterologously expressing human GluN1/GluN2B NMDA receptors to initiate cellular Ca^2+ influx. The time course of the changes in intracellular calcium is measured using a fluorescent dye and a FLIPR (Fluorometric Imaging Plate Reader) device.
Twenty four hours before measurements, the expression of the NMDA receptors in the stable cell line is induced with Tet-On inducible system in the presence of a non-selective NMDA receptor blocker. On the day of the experiment, cell culture media is carefully washed and the cells are loaded with Calcium 5 Dye Kit (Molecular Devices) in dye loading buffer containing 137 mM NaCl, 4 mM KCl, 2 mM CaCl2, 0.5 mM MgCl2 (standard assay) or 1.5 mM MgCl2 (HTS assay), 10 mM HEPES and 5 mM D-glucose; pH 7.4. After 1 h incubation at the room temperature, the dye is washed away with the assay buffer (137 mM NaCl (standard assay) or 150 mM (HTS assay), 4 mM KCl (standard assay) or 3 mM (HTS assay), 2 mM CaC2, 0.01 mM EDTA, 10 mM HEPES and 5 mM D-glucose; pH 7.4) In the FLIPR TETRA reader, various concentrations of the test compounds are added to the cells for 5 min while fluorescence is monitored to detect potential agonist activity. Next, co-agonists, glutamate and glycine are added for another 5 minutes. The concentration of glutamate corresponding to ˜EC40 (standard assay) or EC40 (HTS assay) is used to maximize the assay's signal window and ability to detect NMDA receptor antagonists and negative allosteric modulators. A saturating concentration (10 μM) of glycine is also present in the assay. A non-selective NMDA receptor antagonist, (+)MK-801 is used as a positive control for antagonist activity. The fluorescent signal in the presence of test compounds is quantified and normalized to the signal defined by the appropriate control wells.
A general note: Calcium flux is commonly read through the fluorescence of an indicator in the cells.

T1 sequence (Q13224 27-1484, other chains not shown): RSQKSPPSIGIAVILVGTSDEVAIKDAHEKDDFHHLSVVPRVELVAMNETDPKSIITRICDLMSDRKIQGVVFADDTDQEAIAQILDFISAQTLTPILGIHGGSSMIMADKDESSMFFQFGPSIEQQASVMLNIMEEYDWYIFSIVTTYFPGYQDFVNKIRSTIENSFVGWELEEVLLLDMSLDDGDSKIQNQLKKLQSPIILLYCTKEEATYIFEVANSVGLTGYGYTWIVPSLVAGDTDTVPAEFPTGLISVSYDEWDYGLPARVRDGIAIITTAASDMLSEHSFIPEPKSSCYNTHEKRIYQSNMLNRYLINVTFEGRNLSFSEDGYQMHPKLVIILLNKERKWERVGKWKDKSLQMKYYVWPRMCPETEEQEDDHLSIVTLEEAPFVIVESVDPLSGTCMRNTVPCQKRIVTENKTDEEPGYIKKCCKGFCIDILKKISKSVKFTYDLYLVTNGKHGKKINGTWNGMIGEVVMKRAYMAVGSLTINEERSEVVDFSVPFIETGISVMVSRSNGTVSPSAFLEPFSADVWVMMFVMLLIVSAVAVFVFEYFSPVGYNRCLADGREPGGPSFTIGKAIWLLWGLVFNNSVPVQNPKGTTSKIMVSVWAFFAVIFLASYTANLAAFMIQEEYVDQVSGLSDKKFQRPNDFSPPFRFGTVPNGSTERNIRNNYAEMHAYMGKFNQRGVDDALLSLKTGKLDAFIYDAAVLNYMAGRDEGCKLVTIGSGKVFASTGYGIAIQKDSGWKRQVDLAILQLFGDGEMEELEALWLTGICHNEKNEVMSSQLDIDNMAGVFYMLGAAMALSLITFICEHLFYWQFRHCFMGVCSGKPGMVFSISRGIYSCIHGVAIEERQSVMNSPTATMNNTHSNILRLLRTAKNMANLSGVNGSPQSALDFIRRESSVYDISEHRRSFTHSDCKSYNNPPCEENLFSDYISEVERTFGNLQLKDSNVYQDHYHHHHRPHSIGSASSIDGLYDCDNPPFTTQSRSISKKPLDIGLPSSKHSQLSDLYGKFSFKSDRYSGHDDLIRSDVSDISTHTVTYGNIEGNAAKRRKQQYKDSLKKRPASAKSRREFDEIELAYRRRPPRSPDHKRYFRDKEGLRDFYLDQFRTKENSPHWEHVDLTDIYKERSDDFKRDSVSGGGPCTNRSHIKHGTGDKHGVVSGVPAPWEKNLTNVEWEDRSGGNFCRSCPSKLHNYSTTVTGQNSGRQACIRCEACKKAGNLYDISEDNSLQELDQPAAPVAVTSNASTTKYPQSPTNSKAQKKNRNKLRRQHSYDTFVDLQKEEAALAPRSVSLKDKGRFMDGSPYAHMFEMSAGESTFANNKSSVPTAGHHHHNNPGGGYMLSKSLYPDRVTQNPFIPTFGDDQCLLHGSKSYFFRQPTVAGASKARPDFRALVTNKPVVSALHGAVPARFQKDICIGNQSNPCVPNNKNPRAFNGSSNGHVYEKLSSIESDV

In the case of `ON=C(Cn1ncc2ncc(-c3cccc(C(F)(F)F)c3)cc21)C1CC1` (mixture of isomers) [Example 106, (E/Z)-1-Cyclopropyl-2-[6-[3-(trifluoromethyl)phenyl]pyrazolo[4,3-b]pyridin-1-yl]ethanone oxime], the IC50 was 1490 nM. The value for `CCN1C[C@@H](Cn2ncc3ncc(-c4ccc(F)c(C(F)F)c4)cc32)OC1=O` [Example 132, (S)-5-[[6-[3-(Difluoromethyl)-4-fluoro-phenyl]pyrazolo[4,3-b]pyridin-1-yl]methyl]-3-ethyl-oxazolidin-2-one] was 1430 nM; that for `O=C1O[C@@H](Cn2ncc3ncc(-c4ccc(F)c(C(F)F)c4)cc32)CN1C1CC1` [Example 136, (R)-3-Cyclopropyl-5-[[6-[3-(difluoromethyl)-4-fluoro-phenyl]pyrazolo[4,3-b]pyridin-1-yl]methyl]oxazolidin-2-one] was 997 nM; that for `Fc1ccc(-c2cnc3cnn(CC4CCCO4)c3c2)cc1C(F)F` (racemic) [Example 18, (RS)-6-[3-(Difluoromethyl)-4-fluoro-phenyl]-1-(tetrahydrofuran-2-ylmethyl)pyrazolo[4,3-b]pyridine] was 35 nM. For `CC(C)C(=O)Cn1ncc2ncc(-c3ccc(F)c(F)c3)cc21` [Example 49, 1-[6-(3,4-Difluorophenyl)pyrazolo[4,3-b]pyridin-1-yl]-3-methyl-butan-2-one] the value was 25 nM; for `CCC(=O)Cn1ncc2ncc(-c3cccc(C(C)(F)F)c3)cc21` [Example 31, 1-[6-[3-(1,1-Difluoroethyl)phenyl]pyrazolo[4,3-b]pyridin-1-yl]butan-2-one], 35 nM; for `CN1C[C@@H](Cn2ncc3ncc(-c4ccc(F)c(C(F)F)c4)cc32)OC1=O` [Example 130, (5S)-5-[[6-[3-(Difluoromethyl)-4-fluoro-phenyl]pyrazolo[4,3-b]pyridin-1-yl]methyl]-3-methyl-oxazolidin-2-one], 478 nM.

In the case of `O=C(Cn1ncc2ncc(-c3cccc(F)c3)cc21)C1CC1` [Example 57, 1-Cyclopropyl-2-[6-(3-fluorophenyl)pyrazolo[4,3-b]pyridin-1-yl]ethanone], the IC50 worked out at 26 nM. As for `CC(=O)Cn1ncc2ncc(-c3ccc(F)c(C)c3)cc21` [Example 24, 1-[6-(4-Fluoro-3-methyl-phenyl)pyrazolo[4,3-b]pyridin-1-yl]propan-2-one], the IC50 was found to be 15 nM. Consider `CCC(=O)Cn1ncc2ncc(-c3ccc(F)c(OC(F)F)c3)cc21` [Example 40, 1-[6-[3-(Difluoromethoxy)-4-fluoro-phenyl]pyrazolo[4,3-b]pyridin-1-yl]butan-2-one], for which the IC50 came out at 11 nM. The value for `FC(F)(F)c1cccc(-c2cnc3cnn(CC4CCO4)c3c2)c1` (racemic) [Example 17, (RS)-1-(Oxetan-2-ylmethyl)-6-[3-(trifluoromethyl)phenyl]pyrazolo[4,3-b]pyridine] was 85 nM; that for `CCC(=O)Cn1ncc2ncc(-c3cccc(F)c3F)cc21` [Example 33, 1-[6-(2,3-Difluorophenyl)pyrazolo[4,3-b]pyridin-1-yl]butan-2-one] was 46 nM; that for `COCCn1ncc2ncc(-c3ccc(F)c(C)c3)cc21` [Example 89, 6-(4-Fluoro-3-methyl-phenyl)-1-(2-methoxyethyl)pyrazolo[4,3-b]pyridine] was 754 nM. In the case of `COC(Cn1ncc2ncc(-c3cc(F)c(F)c(F)c3)cc21)C1CC1` (racemic) [Example 11, (R/S)-1-(2-Cyclopropyl-2-methoxy-ethyl)-6-(3,4,5-trifluorophenyl)pyrazolo[4,3-b]pyridine], the IC50 turned out to be 1780 nM. For `CCC(O)Cn1nc(F)c2ncc(-c3ccc(F)c(F)c3)cc21` (racemic) [Example 94, (RS)-1-[6-(3,4-Difluorophenyl)-3-fluoro-pyrazolo[4,3-b]pyridin-1-yl]butan-2-ol] the value was 965 nM; for `Cc1cccc(-c2cnc3cnn(CC(=O)C4CC4)c3c2)c1` [Example 60, 1-Cyclopropyl-2-[6-(m-tolyl)pyrazolo[4,3-b]pyridin-1-yl]ethanone], 8 nM; for `CN1CC(Cn2ncc3ncc(-c4ccc(F)c(OC(F)F)c4)cc32)CC1=O` (racemic) [Example 19, (RS)-4-[[6-[3-(Difluoromethoxy)-4-fluoro-phenyl]pyrazolo[4,3-b]pyridin-1-yl]methyl]-1-methyl-pyrrolidin-2-one], 992 nM.

For the compound `Cc1cc(-c2cnc3cnn(CC(=O)C4CC4)c3c2)ccc1F` [Example 69, 1-Cyclopropyl-2-[6-(4-fluoro-3-methyl-phenyl)pyrazolo[4,3-b]pyridin-1-yl]ethanone], the IC50 was found to be 19 nM.

For `CCC(=O)Cn1ncc2ncc(-c3cccc(F)c3)cc21` [Example 29, 1-[6-(3-Fluorophenyl)pyrazolo[4,3-b]pyridin-1-yl]butan-2-one], the IC50 came out at 28 nM. For `CC(C)C(=O)Cn1ncc2ncc(-c3cccc(F)c3)cc21` [Example 46, 1-[6-(3-Fluorophenyl)pyrazolo[4,3-b]pyridin-1-yl]-3-methyl-butan-2-one] the value was 30 nM; for `Cc1cc(F)ccc1-c1cnc2cnn(CC(=O)C3CC3)c2c1` [Example 72, 1-Cyclopropyl-2-[6-(4-fluoro-2-methyl-phenyl)pyrazolo[4,3-b]pyridin-1-yl]ethanone], 199 nM. For `O=C(Cn1ncc2ncc(-c3cccc(C(F)(F)F)c3F)cc21)C1CC1` [Example 73, 1-Cyclopropyl-2-[6-[2-fluoro-3-(trifluoromethyl)phenyl]pyrazolo[4,3-b]pyridin-1-yl]ethanone] the value was 43 nM; for `CC[S+]([O-])Cn1ncc2ncc(-c3ccc(F)c(OC(F)F)c3)cc21` (racemic) [Example 12, (RS)-6-[3-(Difluoromethoxy)-4-fluoro-phenyl]-1-(ethylsulfinylmethyl)pyrazolo[4,3-b]pyridine], 146 nM; for `CC(C)C(=O)Cn1ncc2ncc(-c3ccc(F)cc3)cc21` [Example 45, 1-[6-(4-Fluorophenyl)pyrazolo[4,3-b]pyridin-1-yl]-3-methyl-butan-2-one], 36 nM.

In the case of `O=C(Cn1ncc2ncc(-c3ccc(F)c(C(F)F)c3)cc21)c1cccs1` [Example 137, 2-[6-[3-(Difluoromethyl)-4-fluoro-phenyl]pyrazolo[4,3-b]pyridin-1-yl]-1-(2-thienyl)ethanone], the IC50 came to 36 nM. In the case of `CCC(O)Cn1ncc2ncc(-c3ccc(F)c(OC(F)F)c3)cc21` (racemic) [Example 92, (RS)-1-[6-[3-(Difluoromethoxy)-4-fluoro-phenyl]pyrazolo[4,3-b]pyridin-1-yl]butan-2-ol], the IC50 stood at 282 nM.

For `CCC(=O)Cn1ncc2ncc(-c3ccc(Cl)s3)cc21` [Example 27, 1-[6-(5-Chloro-2-thienyl)pyrazolo[4,3-b]pyridin-1-yl]butan-2-one], the IC50 came out at 13 nM. For `CC(C)C(=O)Cn1ncc2ncc(-c3cccc(C(F)(F)F)c3)cc21` [Example 2, 3-Methyl-1-[6-[3-(trifluoromethyl)phenyl]pyrazolo[4,3-b]pyridin-1-yl]butan-2-one] the value was 61 nM; for `CC[S+]([O-])Cn1ncc2ncc(-c3ccc(F)c(C(F)F)c3)cc21` (racemic) [Example 83, (RS)-6-(3-(Difluoromethyl)-4-fluorophenyl)-1-((ethylsulfinyl)methyl)-1H-pyrazolo[4,3-b]pyridine], 34 nM. The value for `CCC(O)Cn1ncc2ncc(-c3ccc(F)c(F)c3)cc21` (racemic) [Example 91, (RS)-1-[6-(3,4-Difluorophenyl)pyrazolo[4,3-b]pyridin-1-yl]butan-2-ol] was 526 nM; that for `CC(C)C(=O)Cn1ncc2ncc(-c3cccc(C(F)F)c3)cc21` [Example 47, 1-[6-[3-(Difluoromethyl)phenyl]pyrazolo[4,3-b]pyridin-1-yl]-3-methyl-butan-2-one] was 23 nM; that for `CC(=O)Cn1ncc2ncc(-c3ccc(Cl)c(OC(F)F)c3)cc21` [Example 26, 1-[6-[4-Chloro-3-(difluoromethoxy)phenyl]pyrazolo[4,3-b]pyridin-1-yl]propan-2-one] was 36 nM.

As to `O=C(Cn1ncc2ncc(-c3ccccc3F)cc21)C1CC1` [Example 58, 1-Cyclopropyl-2-[6-(2-fluorophenyl)pyrazolo[4,3-b]pyridin-1-yl]ethanone], the IC50 was found to be 148 nM.

In the case of `O=C(Cn1ncc2ncc(-c3ccc(F)c(OC(F)F)c3)cc21)C1CC1` [Example 77, 1-Cyclopropyl-2-[6-[3-(difluoromethoxy)-4-fluoro-phenyl]pyrazolo[4,3-b]pyridin-1-yl]ethanone], the IC50 worked out at 14 nM.

The term IC50 denotes the point on the concentration scale where inhibition reaches its midpoint.
